# Experiments:
# μOR = conditions: cited from earlier work
# [1] = tested on: wild-type (WT) HEK293 cells; assay: Pink Flamindo cAMP assay control in wild-type HEK293 cells lacking μORs; type: cell-based; conditions: compound 1 μM, AUC analysis, n = 3
Compound,EC100 (μOR),effect on cAMP accumulation in the absence of the hμOR [1]
"[D-Ala,[2] N-MePhe,[4] Gly-ol]-enkephalin [DAMGO]",250 nM,–
"C=C(C)[C@@H]1CCC(C)=C[C@H]1c1c(O)cc(CCCCC)cc1O [JGC1, (1′R,2′R)-5′-Methyl-4-pentyl-2′-(prop-1-en-2-yl)-1′,2′,3′,4′-tetrahydro-[1,1′-biphenyl]-2,6-diol]",–,do not impact cAMP accumulation

# Reference: publication PMC11299522 (Journal of medicinal chemistry, 2023)
